Experimental data as given in patent publication US9458123B2, “Methods, pharmaceutical compositions, therapeutic systems, and compounds for treating B cell malignancies” (University of Rochester, priority 2012, dated 2016).

Key:
OCI-Ly7 cells = assay: Cell cycle distribution, PI and BrdU double staining; format: cell-based; conditions: short time (5 hour) treatment
Procedure: (§1) The indicated ABC DLBCL cells were seeded at 3×10^5 cells/ml in 6-well plates and cultured in the presence of DMSO (0.2%, control) or various concentrations of NSC697923 for 24 hours. The live and dead cells were counted using the trypan blue exclusion assay. Shown are the means from three separate experiments. The average number of live cells in the control was set at 100. […] The levels of the indicated proteins were analyzed by western blotting. For caspase 3 detection, a mixture of an antibody for the uncleaved form and an antibody specific for the cleaved form was used. In FIG. 7C, OCI-Ly10 cells were treated as in FIG. 7A. The apoptotic cells (Annexin V positive cells) were measured by flow cytometry as described in Example 1 infra. A representative result from three independent experiments is depicted. […] BrdU was then added into the culture medium for 30 minutes before the cell-cycle distribution of the treated cells was analyzed as described in Example 1 infra. Shown are the averages from two independent experiments. […] BrdU was then added into the culture medium for 30 minutes before the cell-cycle distribution of the treated cells was analyzed as described in Example 1 infra. Shown are the averages from two independent experiments. […]

OCI-Ly10 cells = assay: as above; format: cell-based; conditions: short time (5 hour) treatment
Procedure: as §1

[1] = tested on: PMA-induced NF-κB activation in SUDHL-6 cells; assay: IκBα phosphorylation after PMA, western blot; format: cell-based; conditions: SUDHL-6, PMA 100 ng/ml
Procedure: (§2) SUDHL-6, RAW264.7, and MEF cells were treated with NSC697923 or DMSO (control) for 1 hour before being stimulated with the PMA (100 ng/ml), RANKL (15 ng/ml), and LPS (1.5 μg/ml) for the indicated times. The levels of IκBα phosphorylation in the indicated samples were assessed by western blotting.

Ubc13 in OCI-Ly10 cells = target: T1, Ubc13 in OCI-Ly10 cells (Homo sapiens, UniProt P61088); assay: Ubc13~Ub conjugate formation in DLBCL cells, western blot; format: cell-based; conditions: 3 hours
T1 construct: endogenous in cells; host or cells: OCI-Ly10
Procedure: OCI-Ly10 cells were treated with the indicated concentrations of NSC697923 for 3 hours. The levels of Ubc13˜Ub conjugate were analyzed by western blotting using a Ubc13-specific antibody as described in FIG. 4B. […] OCI-Ly10 cells were treated with DMSO (0.1%) or the indicated concentrations of NSC697923 for 3.5 hours. The levels of the indicated proteins were analyzed by western blotting with the respective antibodies.

[2] = tested on: IκBα phosphorylation by RANKL in RAW264.7 cells; assay: IκBα phosphorylation after RANKL, western blot; format: cell-based; conditions: RAW264.7, RANKL 15 ng/ml
Procedure: as §2

Ubc13-Uev1A complex = target: T2, Ubc13-Uev1A complex (Homo sapiens, UniProt P61088); assay: GST pull-down, in vitro interaction between Ubc13 and Uev1A; format: binding; conditions: GST-Ubc13, OCI-Ly10 cell extract
T2 construct: made in house; host or cells: E. coli BL21 (GST-Ubc13); OCI-Ly10 cell lysate (Uev1A)
Procedure: Purified GST or GST-Ubc13 fusion proteins were incubated with the cell extract prepared from OCI-Ly10 cells with or without the presence of NSC697923 as indicated. The amounts of Uev1A protein associated with GST or GST-Ubc13 were analyzed by western blotting. The first lane was loaded with 8% of the input cell lysate. […] The assay was carried out as described in FIG. 4A, except that the loading buffer for SDS-PAGE gel contains no reducing agent, unless otherwise specified, and the reaction was analyzed by western blotting with a Ubc13-specific antibody. […] The assay was carried out as in FIG. 5B, except that UbcHSc, instead of Ubc13 and Uev1A, was used in the ubiquitination reaction and that a UbcHSc antibody was used for western blot analysis. […]
GST-Ubc13 bound on glutathione-agarose beads was incubated with cell lysates prepared from OCI-Ly10 cells, with or without the presence of NSC697923, at 4° C. for 1 hour. […] The amounts of GST-Ubc13 and Uev1A proteins bound to the beads were then analyzed by western blotting.

T1 sequence (P61088 whole entry): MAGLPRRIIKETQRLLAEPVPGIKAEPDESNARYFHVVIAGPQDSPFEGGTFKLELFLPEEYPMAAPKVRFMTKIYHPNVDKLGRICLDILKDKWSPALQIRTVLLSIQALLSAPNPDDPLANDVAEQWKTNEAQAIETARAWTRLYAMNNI
T2 sequence (P61088 whole entry): as above
T2 sequence (Q13404 whole entry partner): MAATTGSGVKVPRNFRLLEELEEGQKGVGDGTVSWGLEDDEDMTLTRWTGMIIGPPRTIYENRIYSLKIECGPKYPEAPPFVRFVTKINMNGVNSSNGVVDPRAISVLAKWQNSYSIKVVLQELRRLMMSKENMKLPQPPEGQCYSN

For `Cc1ccc(S(=O)(=O)c2ccc([N+](=O)[O-])o2)cc1` [NSC697923, 2-nitro-5-tosylfuran], the “cells in S phase” value (OCI-Ly7 cells) was “marked decrease of cells in S phase”, the “cells in S phase” value (OCI-Ly10 cells) was “marked decrease of cells in S phase” and the “PMA-induced NF-κB activation (IκBα phosphorylation)” value [1] was “inhibiting”. For the same molecule, the “formation of the Ubc13~Ub conjugate in cells” value (Ubc13 in OCI-Ly10 cells) was “inhibited formation of the Ubc13˜Ub conjugate”, the “IκBα phosphorylation by RANKL” value [2] was “inhibited” and the “complex formation between Ubc13 and Uev1A” value (Ubc13-Uev1A complex) was “no inhibitory effect”.
